Common to all, as to assay type: biochemical
Assay [1] concerns the target T1, human plasma thrombin (Homo sapiens, UniProt P00734).
T1 construct: human plasma thrombin (1 U/ml in 10 mM Mes, pH 6.0, 0.1 M NaCl, SIGMA); purchased SIGMA; host or cells: human plasma
Description: Inhibitory activity on other serine proteases: Thrombin (Chromozyme TH). The settings on record: for IC50: thrombin; for fold vs chymase: thrombin IC50 compared with IC50 value of chymase. Here is the method:
The mixture of 10 µl of human plasma thrombin (1 U/ml in 10 mM Mes, pH 6.0, 0.1 M NaCl, SIGMA), 80 µl of buffer (0.1 M Tris-HCl, pH 8.0, 10 mM CaCl2, 0.1 M NaCl) and 1 µl of the compound of the present invention (in DMSO) was incubated for 20 minutes at room temperature and for 10 minutes at 37 °C. The resultant mixture was reacted with 10 µl of a substrate (5 mM Chromozyme TH (TosGPRpNA, Boehringer Mannheim) in H2O) for about 60 minutes at 37 °C and the absorption intensity (405 nm) was measured.
(§1) The IC50 values of each serine protease are calculated and compared with IC50 value of chymase.

Assay [2] concerns the target T2, bovine pancreas trypsin (Bos taurus, UniProt P00760).
T2 construct: bovine pancreas trypsin (1.5 µg/ml in 1 mM HCl, 20 mM CaCl2, SIGMA); purchased SIGMA; host or cells: bovine pancreas
T2 sequence (P00760 24-246): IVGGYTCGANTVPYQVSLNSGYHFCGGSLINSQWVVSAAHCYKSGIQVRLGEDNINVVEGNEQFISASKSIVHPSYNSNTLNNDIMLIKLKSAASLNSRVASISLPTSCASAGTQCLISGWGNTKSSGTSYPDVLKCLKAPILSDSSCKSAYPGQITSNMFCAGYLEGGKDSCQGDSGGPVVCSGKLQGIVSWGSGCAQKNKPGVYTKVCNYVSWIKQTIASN
Kind of assay: Inhibitory activity on other serine proteases: Trypsin (sucAAPRpNA). The settings on record: for IC50: trypsin; for fold vs chymase: trypsin IC50 compared with IC50 value of chymase. Here is the method: The mixture of 10 µl of bovine pancreas trypsin (1.5 µg/ml in 1 mM HCl, 20 mM CaCl2, SIGMA), 80 µl of buffer (50mM Tris-HCl, 2 mM CaCl2 pH 8.0) and 1 µl of the compound of the present invention (in DMSO) was incubated for 20 minutes at room temperature and for 10 minutes at 37 °C. The resultant mixture was reacted with 10 µl of a substrate (5 mM sucAAPRpNA (BACHEM Feinchemikalien AG) in 50 % DMSO) for about 60 minutes at 37 °C and the absorption intensity (405 nm) was measured.
as §1

Assay [3] deals with T3, human chymase (Homo sapiens, UniProt P23946).
T3 sequence (P23946 22-247): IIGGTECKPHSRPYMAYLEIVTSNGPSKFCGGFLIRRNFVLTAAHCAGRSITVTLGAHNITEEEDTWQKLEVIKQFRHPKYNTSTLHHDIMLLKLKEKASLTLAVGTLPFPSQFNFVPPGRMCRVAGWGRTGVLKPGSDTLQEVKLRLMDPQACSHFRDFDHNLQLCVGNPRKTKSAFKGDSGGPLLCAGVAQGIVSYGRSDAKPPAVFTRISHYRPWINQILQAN
Kind of assay: Chymase inhibitory activity (Suc-Ala-Ala-Pro-Phe-pNA substrate, absorption 405 nm). The settings on record: purified human chymase, 30 minutes at 37 °C preincubation, substrate 0.5 mM. On the procedure: Compound (I) was dissolved in dimethylsulfoxide (DMSO) at 10^-2 M. Concentration of DMSO for activity measurement was 1 %.
Compound (I) dissolved in DMSO and purified human chymase (Takai et al., Clinica Chimica Acta 265, 1997, 13-20) were added to a buffer (0.1M Tris-HCl, 1.8M NaCl pH8.0). After the mixture was treated for 30 minutes at 37 °C, Suc-Ala-Ala-Pro-Phe-pNA (BACHEM Feinchemikalien AG) was added at 0.5 mM as a substrate and the mixture was enzymatically reacted at 37 °C.
After the reaction, the absorption intensity (405 nm) of the solution was measured to calculate the inhibitory rate.

Assay [4] addresses T4, human serine plasmin (Homo sapiens, UniProt P00747).
T4 construct: purchased SIGMA
Description: Inhibitory activity on other serine proteases: Plasmin (Chromozyme PL). The settings on record: for IC50: plasmin; for fold vs chymase: plasmin IC50 compared with IC50 value of chymase. Here is the method: The mixture of 10 µl of human serine plasmin (0.1 mg/ml in 1 mM HCl, 20 mM CaCl2, SIGMA), 80 µl of buffer (50mM Tris-HCl, pH 7.5, 50 mM NaCl) and 1 µl of the compound of the present invention (in DMSO) was incubated for 20 minutes at room temperature and for 10 minutes at 37 °C. The resultant mixture was reacted with 10 µl of a substrate (5 mM Chromozyme PL(TosGPKpNA, Boehringer Mannheim) in H2O) for about 30 minutes at 37 °C and the absorption intensity (405 nm) was measured.
as §1

The target in assay [5] is T5, Cathepsin G (Homo sapiens, UniProt P08311).
T5 construct: human purulent sputum cathepsin (1.7 µg/ml in 1 mM HCl, 20 mM CaCl2, CALBIOCHEM); purchased CALBIOCHEM; host or cells: human purulent sputum
T5 sequence (P08311 21-244): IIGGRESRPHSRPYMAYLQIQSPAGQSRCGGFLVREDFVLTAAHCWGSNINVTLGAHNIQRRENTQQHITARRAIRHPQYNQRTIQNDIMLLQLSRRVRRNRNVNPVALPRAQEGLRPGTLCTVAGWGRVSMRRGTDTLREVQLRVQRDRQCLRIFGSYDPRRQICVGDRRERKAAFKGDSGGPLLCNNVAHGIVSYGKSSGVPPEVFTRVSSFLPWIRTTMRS
Kind of assay: Inhibitory activity on other serine proteases: Cathepsin G (sucAAPFpNA). The settings on record: for IC50: Cathepsin G; for fold vs chymase: Cathepsin G IC50 compared with IC50 value of chymase. On the procedure: The mixture of 10 µl of human purulent sputum cathepsin (1.7 µg/ml in 1 mM HCl, 20 mM CaCl2, CALBIOCHEM), 80 µl of buffer (50mM Tris-HCl, pH 7.5, 5.2 mM CaCl2) and 1 µl of the compound of the present invention (in DMSO) was incubated for 20 minutes at room temperature and for 10 minutes at 37 °C. The resultant mixture was reacted with 10 µl of a substrate (5 mM sucAAPFpNA in DMSO, BACHEM Feinchemikalien AG) for about 60 minutes at 37 °C and the absorption intensity (405 nm) was measured.
as §1

The target in assay [6] is T6, human neutrophils elastase (Homo sapiens, UniProt P08246).
T6 construct: human neutrophils elastase (0.02 mg/ml in 50 mM Tris-HCl, pH 7.0, 2 mM CaCl2, Athens research and technology); purchased Athens research and technology; host or cells: human neutrophils
T6 sequence (P08246 30-267): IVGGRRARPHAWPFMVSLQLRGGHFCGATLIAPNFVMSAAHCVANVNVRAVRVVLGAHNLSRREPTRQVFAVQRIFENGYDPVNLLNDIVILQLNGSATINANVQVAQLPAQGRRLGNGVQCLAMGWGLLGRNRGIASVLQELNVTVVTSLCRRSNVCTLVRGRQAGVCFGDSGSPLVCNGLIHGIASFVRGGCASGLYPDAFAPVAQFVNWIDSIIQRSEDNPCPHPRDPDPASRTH
Kind of assay: Inhibitory activity on other serine proteases: Elastase (sucAAVpNA). The settings on record: for IC50: elastase; for fold vs chymase: elastase IC50 compared with IC50 value of chymase. Here is the method:
The mixture of 10 µl of human neutrophils elastase (0.02 mg/ml in 50 mM Tris-HCl, pH 7.0, 2 mM CaCl2, Athens research and technology), 80 µl of buffer (50mM Tris-HCl, pH 8.0, 2 mM CaCl2) and 1 µl of the compound of the present invention (in DMSO) was incubated for 20 minutes at room temperature and for 10 minutes at 37 °C. The resultant mixture was reacted with 10 µl of a substrate (5 mM sucAAVpNA (BACHEM Feinchemikalien AG) in 50 % DMSO) for about 30 minutes at 37 °C and the absorption intensity (405 nm) was measured.
as §1

T4 sequence (P00747 581-810 limits assumed): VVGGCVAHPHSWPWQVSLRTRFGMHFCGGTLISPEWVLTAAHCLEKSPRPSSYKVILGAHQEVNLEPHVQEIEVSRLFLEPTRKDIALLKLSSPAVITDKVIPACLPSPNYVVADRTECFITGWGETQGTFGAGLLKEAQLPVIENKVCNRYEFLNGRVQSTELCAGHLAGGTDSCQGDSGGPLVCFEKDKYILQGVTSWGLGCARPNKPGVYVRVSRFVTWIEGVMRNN
T4 sequence (P00747 98-580 partner limits assumed): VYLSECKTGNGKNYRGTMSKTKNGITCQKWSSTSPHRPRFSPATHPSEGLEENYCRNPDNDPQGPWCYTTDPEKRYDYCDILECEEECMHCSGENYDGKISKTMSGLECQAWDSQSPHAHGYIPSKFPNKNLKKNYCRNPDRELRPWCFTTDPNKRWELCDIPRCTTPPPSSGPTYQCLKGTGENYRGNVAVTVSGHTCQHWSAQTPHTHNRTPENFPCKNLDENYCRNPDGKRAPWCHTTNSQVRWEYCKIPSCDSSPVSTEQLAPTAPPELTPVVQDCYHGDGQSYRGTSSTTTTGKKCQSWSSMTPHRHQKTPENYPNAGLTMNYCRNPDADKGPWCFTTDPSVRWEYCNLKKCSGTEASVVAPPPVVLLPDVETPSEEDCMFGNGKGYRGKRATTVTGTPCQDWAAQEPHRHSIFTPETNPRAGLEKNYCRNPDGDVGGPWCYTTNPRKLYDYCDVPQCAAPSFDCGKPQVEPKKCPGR

As to `CCOc1ccccc1CC1C(=O)N(C(=O)NC(c2ccccc2)c2ccccc2)C1Oc1ccc(C(=O)O)cc1` (stereo not shown) [Compound I-144, 4-[1-(Benzhydryl-carbamoyl)-3-(2-ethoxy-benzyl)-4-oxo-azetidin-2-yloxy]-benzoic acid], the IC50 (in general, the point on the concentration scale where inhibition reaches its midpoint) in assay [1] is above 100000 nM; in assay [2], 25000 nM; in assay [3], 3.1 nM; in assay [4], above 10000 nM; in assay [5] it was 35.4 nM; in assay [6], above 100000 nM. The fold vs chymase was above 30000 in assay [1]; 8000 in assay [2]; above 3000 in assay [4]; 11 in assay [5]; above 30000 in assay [6].

Turning to `CCOc1ccccc1C[C@@H]1C(=O)N(C(=O)NC(c2ccccc2)c2ccccc2)[C@H]1Oc1ccc(C(=O)NS(=O)(=O)c2ccccc2)cc1` [Compound I-151], half-maximal inhibition in assay [3] (IC50) required 4.6 nM.

Take `CCOc1ccccc1C[C@@H]1C(=O)N(C(=O)NC(c2ccccc2)c2ccccc2)[C@H]1Oc1ccc(C(=O)O)c(C(=O)O)c1` [Compound I-152]: inhibition in assay [3] was half-maximal at 4.1 nM (IC50).

In assay [3], `CCOc1ccccc1C[C@@H]1C(=O)N(C(=O)NC(c2ccccc2)c2ccccc2)[C@H]1Oc1ccc(CC(=O)O)cc1` [Compound I-154] showed an IC50 of 2.5 nM.

`CCOc1ccccc1C[C@@H]1C(=O)N(C(=O)NC(c2ccccc2)c2ccccc2)[C@H]1Oc1ccc(/C=C/C(=O)O)cc1` [Compound I-155] yielded an IC50 in assay [3] of 3.8 nM.

On to `CCOc1ccccc1C[C@@H]1C(=O)N(C(=O)NC(c2ccc(C)cc2)c2ccc(C)cc2)[C@H]1Oc1ccc(C(=O)O)cc1` [Compound I-158], for which the IC50 in assay [1] is above 100000 nM; in assay [2], 6200 nM; in assay [3] it was 8.2 nM; in assay [4], above 100000 nM; in assay [5], 143 nM; in assay [6], 25000 nM. The fold vs chymase in assay [1] was above 10000; in assay [2] it was 760; in assay [4], above 10000; in assay [5] it was 17; in assay [6], 3000.

In the case of `CCOc1ccccc1C[C@@H]1C(=O)N(C(=O)NC(c2ccc(F)cc2)c2ccc(F)cc2)[C@H]1Oc1ccc(C(=O)O)cc1` [Compound I-159], in assay [3], half-maximal inhibition (IC50) required 14.5 nM.

With `CCOc1ccccc1C[C@@H]1C(=O)N(C(=O)NC(c2ccc(OC)cc2)c2ccc(OC)cc2)[C@H]1Oc1ccc(C(=O)O)cc1` [Compound I-160], half-maximal inhibition in assay [3] (IC50) was put at 15 nM.

As to `CCCc1ccccc1C[C@@H]1C(=O)N(C(=O)NC(c2ccccc2)c2ccccc2)[C@H]1Oc1ccc(C(=O)O)cc1` [Compound I-161], 18 nM corresponded to half-maximal inhibition in assay [3] (IC50).

The molecule `CCC1(Cc2ccccc2)C(=O)N(C(=O)NC(C)c2ccccc2)C1Oc1ccc(C(=O)O)cc1` (stereo not shown) [Compound I-172] displayed an IC50 in assay [3] of 115 nM.

Regarding `CCC1(Cc2ccccc2)C(=O)N(C(=O)NC(C)c2ccccc2)C1Oc1ccc(C(=O)N2CCN(C)CC2)cc1` (stereo not shown) [Compound I-173], in assay [3], half-maximal inhibition (IC50) was put at 190 nM.

Values taken from patent publication EP1099690A1, “MONOCYCLIC $g(b)-LACTAM COMPOUNDS AND CHYMASE INHIBITORS CONTAINING THE SAME” (SHIONOGI & CO., LTD., priority 1998, dated 2000).
